Laboratory results as given in patent US5985603A, “P2x receptor DNA and protein sequence” (Glaxo Group Limited, priority 1994, dated 1999).
Counter-ions that a name gives are not always drawn. Like-named read-outs stand apart in the source and are kept apart here.

What was measured:
Type in all cases: cell-based
hP2X [1] = target: T1, hP2X (Homo sapiens, UniProt P51575); assay: inward currents evoked by purinoceptor agonists in Xenopus oocytes expressing hP2X; conditions: for full agonist activity: concentration-response curves; for relative potency: relative to ATP, from EEC50; for Emax at 100 µM: read-out: small inward current, % of the response to 100 μM ATP; for Emax: read-out: maximal response, % of the maximal ATP response
T1 construct: expressed in transfected cells; host or cells: Xenopus oocytes injected with in vitro transcribed RNA
T1 sequence (P51575 1-399): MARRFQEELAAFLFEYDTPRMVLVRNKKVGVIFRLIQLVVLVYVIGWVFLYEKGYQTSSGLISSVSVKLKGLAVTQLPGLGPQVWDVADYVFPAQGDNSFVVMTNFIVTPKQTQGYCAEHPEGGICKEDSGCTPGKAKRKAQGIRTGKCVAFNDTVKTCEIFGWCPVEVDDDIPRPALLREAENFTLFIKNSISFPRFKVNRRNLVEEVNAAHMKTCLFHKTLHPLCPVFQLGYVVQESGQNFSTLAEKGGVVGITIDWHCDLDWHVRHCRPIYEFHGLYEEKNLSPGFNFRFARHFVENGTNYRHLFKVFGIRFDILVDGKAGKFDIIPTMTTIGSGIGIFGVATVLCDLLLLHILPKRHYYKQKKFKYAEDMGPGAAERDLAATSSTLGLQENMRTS
Experimental: (§1) Human urinary bladder P2X cDNA, subcloned into the pBKCMV expression vector, was linearized with Notl, and transcribed in vitro with T3 polymerase in the presence of cap analogue m7G(5')ppp(5')G. Defolliculated Xenopus oocytes (Bertrand et al, Electrophysiology of neuronal nicotinic acetylcholine receptors expressed in Xenopus oocytes following nuclear injection of genes or cDNAs Meth Neurosci 4: 174-193 (1991)) were injected with 50 ng of human P2X in vitro transcribed RNA, and incubated at 18° C. for 2-6 days in the ND96 solution (mM): NaCl96, KCl2, MgCl2 1, CaCl2 2, sodium pyruvate 5, HEPES 5, ph 7.6-7.5, penicillin (10 U/ml), and streptomycin (10 μg/ml).
Oocytes were placed in a 1 ml chamber and superfused at 2-3 ml/min with ND96 solution with 0.1 mM BaCl2 replacing the 2 mM CaCl2 to prevent activation of endogenous calcium-activated chloride currents (Barish, A transient calcium-dependent chloride current in the immature Xenopus oocytes J Physiol 342: 309-325 (1983)). Currents were measured using a two-electrode voltage-clamp amplifier (Geneclamp Axon Instruments)at a holding potential of -60 mV. Microelectrodes were filled with 3 M KCl (0.5-2 M.OMEGA.). Data were collected using PClamp software (Axon Instruments). […] Antagonists were applied both in the superfusate and together with ATP in the U-tube solution.
Concentration response curves for purinoceptor agonists were fitted with a Hill slope of 1. […] Data are presented throughout as mean ± SEM for a given number of oocytes.

hP2X [2] = target: T1, hP2X; assay: antagonist inhibition of ATP-evoked currents in Xenopus oocytes expressing hP2X; conditions: for inhibition of inward currents evoked by 10 μM ATP: 10 μM ATP (approximately EC90); for reversibility of antagonism on washout: PPADS, P5P
Experimental: as §1
Oocytes were placed in a 1 ml chamber and superfused at 2-3 ml/min with ND96 solution with 0.1 mM BaCl2 replacing the 2 mM CaCl2 to prevent activation of endogenous calcium-activated chloride currents (Barish, A transient calcium-dependent chloride current in the immature Xenopus oocytes J Physiol 342: 309-325 (1983)). Currents were measured using a two-electrode voltage-clamp amplifier (Geneclamp Axon Instruments)at a holding potential of -60 mV. Microelectrodes were filled with 3 M KCl (0.5-2 M.OMEGA.). Data were collected using PClamp software (Axon Instruments). ATP and other purinoceptor agonists were applied by a U-tube perfusion system (Fenwick et al, A patch clamp study of bovine chromaffin cells and their sensitivity to acetylcholine J Physiol 331: 577-597 (1982)) placed close (200-500 μm) to the oocyte. […] Concentration response relationships to ATP and its analogs were determined by measuring the peak amplitude of responses to a 5 s application of agonist applied at 10 min intervals. Responses to agonists were normalized in each oocyte to the peak response evoked by 100 μM ATP; 100 μM ATP was usually applied at the beginning and at the end of an experiment to determine if there was any rundown of the response. […] Antagonists were applied both in the superfusate and together with ATP in the U-tube solution. Antagonists were superfused for 5-10 min prior to the application of ATP.
Concentration response curves for purinoceptor agonists were fitted with a Hill slope of 1. Equi-effective concentrations i.e. concentration of agonist, giving 50% of the response to 100 μM ATP, (EEC50) were determined from individual concentration response curves. […] Data are presented throughout as mean ± SEM for a given number of oocytes.

PC12 P2X receptor = target: T2, PC12 P2X receptor (Rattus norvegicus, UniProt P49653); assay: functional properties of cloned P2X receptors (electrical recordings): PC12
T2 construct: host or cells: HEK293 cells (oocytes are also named for the functional characterisation of clone 3)
T2 sequence (P49653 1-472): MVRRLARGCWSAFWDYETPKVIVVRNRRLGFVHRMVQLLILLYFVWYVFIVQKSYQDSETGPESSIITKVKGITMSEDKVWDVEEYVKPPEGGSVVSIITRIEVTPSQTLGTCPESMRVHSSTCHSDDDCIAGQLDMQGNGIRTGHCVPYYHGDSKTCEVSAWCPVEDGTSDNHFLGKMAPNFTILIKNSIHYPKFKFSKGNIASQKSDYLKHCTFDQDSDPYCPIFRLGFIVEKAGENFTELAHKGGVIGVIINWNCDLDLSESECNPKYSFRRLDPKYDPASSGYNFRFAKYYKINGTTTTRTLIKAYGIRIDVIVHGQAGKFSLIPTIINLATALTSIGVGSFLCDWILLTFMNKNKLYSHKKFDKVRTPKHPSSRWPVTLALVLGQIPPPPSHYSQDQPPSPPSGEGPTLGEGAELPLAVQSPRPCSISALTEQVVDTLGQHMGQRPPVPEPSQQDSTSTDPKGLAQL
Experimental: (§2) HEK 293 cells were transfected by the lipofectin method (Felgner et al., Proc. Nat'l. Acad. Sci. USA 84 7413-7417 (1987)) with P2X -plasmid. DNA concentration used was 1 mg/2 ml medium placed into a 35 mm petri dish containing four 11 mm diameter coverslips on which HEK cells were placed at 10,000 cells per coverslip. […] Currents were recorded from HEK 293 cells using whole-cell recording methods and the AXOPATCH™ 200 amplifier (Axon Instruments); patch pipettes (5 M.OMEGA.) contained (mM) Cs or K aspartate 140, NaCl 5, EGTA 11, HEPES 5. The external solution was (mM) NaCl 150, KCl2, CaCl2 2, MgCl2 1, HEPES 5 and glucose 11; the pH and osmolarity of both solutions were maintained at 7.3 and 305 mosmol/l respectively. All recordings performed at room temperature. Data acquisition and analysis were performed using pCLAMP™ and AXOGRAPH™ software (Axon Instruments). […] The pH and osmolarity of the solutions were 7.4 and 295 mosmol/l respectively. For single channel measurements, a […]™ 500 amplifier and outside-out recording methods were used (Adelman et al., Neuron 9 209-216 (1992)). Wax-coated patch pipettes (5-10 M.OMEGA.) contained (mM) K-gluconate 115, HEPES 5, BAPTA 5 and MgCl2 0.5, external solution was 96 mM NaCl, 2 mM KCl, 1.8 mM CaCl2, 1 mM MgCl2, 5 mM Hepes pH 7.6, and 5 mM sodium pyruvate.
(§3) The functional characterisation of the clone illustrated in FIG. 2 (referred to herein as clone 3) was carried out by electrical recordings from transfected HEK293 cells and from oocytes injected with the in vitro transcribed RNA, as described in Example 4 for the rat vas deferens P2X receptor. Table A summarizes the main properties of clone 3 as compared to those of rat vas/human bladder cDNA clone, and the PC12 cDNA clone (provided by David Julius and Tony Brake of the University of California at San Francisco).

[3] = target: T3, rat superior cervical ganglion P2X receptor (clone 3) (Rattus norvegicus, UniProt P51577); assay: functional properties of cloned P2X receptors (electrical recordings): clone 3; conditions: for antagonist profile, clone 3 (block): Table A, concentration not given; for sensitivity of ATP-activated currents to antagonism, compared with rat vas deferens/human bladder and PC12 forms: clone 3 (FIG. 15)
T3 construct: The insert appeared to be a full length cDNA; expressed in transfected cells; host or cells: HEK293 cells transfected with pcDNA3 construct p464 (also oocytes injected with in vitro transcribed RNA)
T3 sequence (P51577 1-388): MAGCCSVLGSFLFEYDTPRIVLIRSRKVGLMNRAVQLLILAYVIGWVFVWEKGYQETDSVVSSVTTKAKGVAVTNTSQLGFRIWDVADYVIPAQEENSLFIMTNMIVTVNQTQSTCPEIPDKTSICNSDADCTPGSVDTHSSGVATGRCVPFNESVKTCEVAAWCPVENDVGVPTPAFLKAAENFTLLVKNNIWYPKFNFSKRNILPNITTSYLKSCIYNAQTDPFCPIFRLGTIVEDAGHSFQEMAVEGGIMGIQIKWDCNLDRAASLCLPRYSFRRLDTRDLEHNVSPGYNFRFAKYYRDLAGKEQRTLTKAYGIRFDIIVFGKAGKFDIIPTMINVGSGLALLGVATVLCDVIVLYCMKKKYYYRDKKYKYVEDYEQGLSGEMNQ
Experimental: as §2, §3

For `Nc1ncnc2c1ncn2[C@@H]1O[C@H](COP(=O)([O-])OP(=O)([O-])[O-])[C@@H](O)[C@H]1O.[Na+].[Na+].[Na+]` [ADP, adenosine 5'-diphosphate sodium salt], the EC50 (hP2X [1]) was 34.3 ± 16 µM, the full agonist activity (hP2X [1]) was “full agonists” and the relative potency (hP2X [1]) was 0.024.

Compound `O=c1ccn([C@@H]2O[C@H](COP(=O)(O)OP(=O)(O)OP(=O)(O)O)[C@@H](O)[C@H]2O)c(=O)[nH]1` [UTP, uridine 5'-triphosphate sodium salt] has an Emax at 100 µM (hP2X [1]) of 3.7 ± 1.8%.

`O=S(=O)(O)c1cc(N=C=S)ccc1C=Cc1ccc(N=C=S)cc1S(=O)(=O)O` [DIDS, 4,4'-diisothiocyanatostilbene 2,2'-disulphonic acid, disodium salt] was tested, and the IC50 (hP2X [2]) was roughly 1 µM, the “inhibition of inward currents evoked by 10 μM ATP” value (“inhibition” below) (hP2X [2]) was “inhibited inward currents evoked by 10 μM ATP” and the “reversibility of inhibitory effects on washout” value (hP2X [2]; DIDS 100 μM) was “very slow to reverse on washout”. The IC50 (PC12 P2X receptor) was greater than 100 µM.

For “2'-3'-O-(4-benzoylbenzol)ATP tetraethylamonium salt [BzATP]”, the “maximal response, % of the maximal ATP response” value (hP2X [1]) was “about 65%”, the EC50 (hP2X [1]; read-out: EEC50: equieffective concentration producing an inward current equivalent to 50% of the peak response to 100 μM ATP, Hill slope of 1, mean ± SEM, n = 3-4, ATP value from mean data from all experiments) was 4.2 ± 2.2 µM and the relative potency (hP2X [1]) was 0.20.

Work on `Nc1ncnc2c1ncn2[C@@H]1O[C@H](COP(=O)(O)OP(=O)(O)OP(=O)(O)OP(=O)(O)OP(=O)(O)OC[C@H]2O[C@@H](n3cnc4c(N)ncnc43)[C@H](O)[C@@H]2O)[C@@H](O)[C@H]1O` [AP5A, p1, p5-di [adenosine-5'] pentaphosphate trilithium salt] yielded an EC50 (hP2X [1]) of 2 ± 0.2 µM, an Emax (hP2X [1]) of roughly 65% and a relative potency (hP2X [1]) of 0.41.

For `Nc1ncnc2c1ncn2[C@@H]1O[C@H](COP(=O)(O)O)[C@@H](O)[C@H]1O` [AMP, adenosine 5'-monophosphate sodium salt], the Emax at 100 µM (hP2X [1]) was 6.08 ± 2%.

`Nc1ncnc2c1ncn2[C@@H]1O[C@H](COP(=O)(O)OP(=O)(O)CP(=O)(O)O)[C@@H](O)[C@H]1O` [d,β,γ-meATP, β,γ-methylene-D-ATP sodium salt] gave an EC50 (hP2X [1]) of 24.1 ± 1.6 µM and a relative potency (hP2X [1]) of 0.034.

In the case of `Nc1nc(Cl)nc2c1ncn2[C@@H]1O[C@H](COP(=O)(O)OP(=O)(O)OP(=O)(O)O)[C@@H](O)[C@H]1O` [2chloroATP, 2-chloro-ATP tetra sodium salt], the EC50 (hP2X [1]) is reported as 0.76 ± 0.1 µM, the “comparison of concentration-effect curves” value (hP2X [1]; ATP, 2MeSATP and 2-chloro-ATP) is reported as “superimposable” and the full agonist activity (hP2X [1]) is reported as “full agonists”. The relative potency (hP2X [1]) was 1.08.

`Nc1ncnc2c1ncn2[C@@H]1O[C@H](COP(=O)(O)OP(=O)(O)OP(O)(O)=S)[C@@H](O)[C@H]1O` [ATP-γ-S, adenosine 5'-O-(-3-thiophosphate) tetralithium salt] gave an EC50 (hP2X [1]) of 10.6 ± 3.8 µM, an Emax (hP2X [1]) of roughly 65% and a relative potency (hP2X [1]) of 0.077.

`Nc1ncnc2c1ncn2[C@@H]1O[C@H](CO)[C@@H](O)[C@H]1O` [Adenosine] was tested, and the Emax at 100 µM (hP2X [1]) was 2.3 ± 1.5%.

For `Cc1nc(N=Nc2ccc(S(=O)(=O)O)cc2S(=O)(=O)O)c(COP(=O)(O)O)c(C=O)c1O` [PPADS, pyridoxal phosphate 6-azophenyl 2',4'-disulphonic acid], the IC50 (hP2X [2]) was roughly 1 µM, the “inhibition” value (hP2X [2]) was “inhibited inward currents evoked by 10 μM ATP” and the “reversibility of antagonism on washout” value (hP2X [2]) was “readily reversible on washout”. The “antagonist profile, clone 3 (block)” value [3] was less than 30% and the “sensitivity of ATP-activated currents to antagonism, compared with rat vas deferens/human bladder and PC12 forms” value [3] was “much less sensitive to antagonism”.

In the case of `Cc1ncc(COP(=O)(O)O)c(C=O)c1O` [P5 P, Pyridoxal 5-phosphate monohydrate], the IC50 (hP2X [2]) is reported as roughly 20 µM, the “inhibition” value (hP2X [2]) is reported as “inhibited inward currents evoked by 10 μM ATP” and the “reversibility of antagonism on washout” value (hP2X [2]) is reported as “readily reversible on washout”. The “antagonist profile, clone 3 (block)” value [3] was less than 40% and the “sensitivity of ATP-activated currents to antagonism, compared with rat vas deferens/human bladder and PC12 forms” value [3] was “much less sensitive to antagonism”.
